Experimental data reported in patent US12077503B2, “Substituted cyclic amides and their use as herbicides” (FMC CORPORATION, priority 2015, dated 2024).

What was measured:
Format in all cases: in vivo
[1] = tested on: giant foxtail (Setaria faberii); experiment: Test A preemergence; conditions: Setaria faberi, pre-emergence, 240 h, 0 to 100 scale where 0 is no effect and 100 is complete control, read-out: Foxtail, Giant plant response rating
Outline: (§1)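 Treatment is preemergence as a directed soil spray after planting, or postemergence at the one- to two-leaf stage, with test chemical in a non-phytotoxic solvent mixture plus surfactant. Plants stay in the greenhouse about 10 d before visual injury scoring on a 0 to 100 scale versus untreated controls.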

[2] = tested on: barnyardgrass (Echinochloa crus-galli); experiment: Test A preemergence; conditions: Echinochloa crus-galli, pre-emergence, 240 h, 0 to 100 scale where 0 is no effect and 100 is complete control, read-out: Barnyardgrass plant response rating
Outline: as §1

Kochia (Kochia scoparia) [3] = experiment: Test A preemergence; conditions: Bassia scoparia, pre-emergence, 240 h, 0 to 100 scale where 0 is no effect and 100 is complete control, read-out: Kochia plant response rating
Outline: as §1

[4] = tested on: ryegrass, Italian (Italian ryegrass, Lolium multiflorum); experiment: Test A preemergence; conditions: Lolium multiflorum, pre-emergence, 240 h, 0 to 100 scale where 0 is no effect and 100 is complete control, read-out: Ryegrass, Italian plant response rating
Outline: as §1

[5] = tested on: ragweed (common ragweed, Ambrosia elatior); experiment: Test A preemergence; conditions: Ambrosia artemisiifolia, pre-emergence, 240 h, 0 to 100 scale where 0 is no effect and 100 is complete control, read-out: Ragweed plant response rating
Outline: as §1

[6] = tested on: pigweed (Amaranthus retroflexus); experiment: Test A preemergence; conditions: Amaranthus retroflexus, pre-emergence, 240 h, 0 to 100 scale where 0 is no effect and 100 is complete control, read-out: Pigweed plant response rating
[7] = tested on: barnyardgrass (Echinochloa crus-galli); experiment: Test B flooded paddy test; conditions: Echinochloa crus-galli, 250 g ai/ha, Flood; 0 to 100 scale where 0 is no effect and 100 is complete control; read-out: Barnyardgrass plant response rating
Outline: (§2)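 Visual ratings (0 none to 100 complete control) are relative to untreated plants, taken 13–15 d after treatment in a greenhouse. Test material went straight into floodwater standing 3 cm above the soil, kept constant, on plants at the 2-leaf stage.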

[8] = tested on: ducksalad (Heteranthera limosa); experiment: Test B flooded paddy test; conditions: Heteranthera limosa, 250 g ai/ha, Flood; 0 to 100 scale where 0 is no effect and 100 is complete control; read-out: Ducksalad plant response rating
Outline: as §2

rice (Oryra sativa) = experiment: Test B flooded paddy test; conditions: Oryza sativa, 250 g ai/ha, Flood; 0 to 100 scale where 0 is no effect and 100 is complete control; read-out: Rice plant response rating
Outline: as §2

[9] = tested on: sedge, umbrella (small-flower umbrella sedge, Cyperus difformis); experiment: Test B flooded paddy test; conditions: Cyperus difformis, 250 g ai/ha, Flood; 0 to 100 scale where 0 is no effect and 100 is complete control; read-out: Sedge, Umbrella plant response rating
Outline: as §2

[10] = tested on: blackgrass (Alopecurus myosuroides); experiment: Test A postemergence; conditions: Alopecurus myosuroides, post-emergence, 240 h
Outline: as §1

[11] = tested on: giant foxtail (Setaria faberii); experiment: Test A postemergence; conditions: Setaria faberi, post-emergence, 240 h
Outline: as §1

corn (Zea mays) = experiment: Test A postemergence; conditions: Zea mays, post-emergence, 240 h
Outline: as §1

[12] = tested on: barnyardgrass (Echinochloa crus-galli); experiment: Test A postemergence; conditions: Echinochloa crus-galli, post-emergence, 240 h
Outline: as §1

Kochia (Kochia scoparia) [13] = experiment: Test A postemergence; conditions: Bassia scoparia, post-emergence, 240 h
Outline: as §1

[14] = tested on: ryegrass, Italian (Italian ryegrass, Lolium multiflorum); experiment: Test A postemergence; conditions: Lolium multiflorum, post-emergence, 240 h
Outline: as §1

[15] = tested on: wheat (Triticum aestivum); experiment: Test A postemergence; conditions: Triticum aestivum, post-emergence, 240 h
Outline: as §1

[16] = tested on: Galium (catchweed bedstraw, Galium aparine); experiment: Test A postemergence; conditions: Galium, post-emergence, 240 h
Outline: as §1

[17] = tested on: ragweed (common ragweed, Ambrosia elatior); experiment: Test A postemergence; conditions: Ambrosia artemisiifolia, post-emergence, 240 h
Outline: as §1

[18] = tested on: pigweed (Amaranthus retroflexus); experiment: Test A postemergence; conditions: Amaranthus retroflexus, post-emergence, 240 h
Outline: as §1

[19] = 125 g ai/ha, preemergence, approx. 10 d

CN1C[C@H](c2cc(C(F)F)cs2)[C@@H](C(=O)Nc2cnccc2C(F)(F)F)C1=O [Compound 1091]
pest or weed control at 31 g/ha ([1]; 31 g ai/ha, Preemergence): 50%
pest or weed control at 125 g/ha [1, 19]: 100%
pest or weed control at 31 g/ha ([2]; 31 g ai/ha, Preemergence): 0%
pest or weed control at 125 g/ha [2, 19]: 0%
pest or weed control at 31 g/ha (Kochia (Kochia scoparia) [3]; 31 g ai/ha, Preemergence): 20%
pest or weed control at 125 g/ha (Kochia (Kochia scoparia) [3]; [19]): 40%
pest or weed control at 31 g/ha ([4]; 31 g ai/ha, Preemergence): 0%
pest or weed control at 125 g/ha [4, 19]: 0%
pest or weed control at 31 g/ha ([5]; 31 g ai/ha, Preemergence): 100%
pest or weed control at 125 g/ha [5, 19]: 0%
pest or weed control at 31 g/ha ([6]; 31 g ai/ha, Preemergence): 10%
pest or weed control at 125 g/ha [6, 19]: 0%
pest or weed control at 250 g/ha [7]: 0%
pest or weed control at 250 g/ha [8]: 0%
pest or weed control at 250 g/ha (rice (Oryra sativa)): 0%
pest or weed control at 250 g/ha [9]: 0%
pest or weed control at 125 g/ha ([10]; 125 g ai/ha, postemergence, visual injury on 0 to 100 scale (0 no effect, 100 complete control), approx. 10 d, read-out: Blackgrass plant response rating): 0%
pest or weed control at 31 g/ha ([10]; Postemergence, 31 g ai/ha, visual injury after approx. 10 d, 0 to 100 scale, 0 no effect, 100 complete control, read-out: Plant response rating, Blackgrass): 0%
pest or weed control at 125 g/ha ([11]; 125 g ai/ha, postemergence, visual injury on 0 to 100 scale (0 no effect, 100 complete control), approx. 10 d, read-out: Foxtail, Giant plant response rating): 0%
pest or weed control at 31 g/ha ([11]; Postemergence, 31 g ai/ha, visual injury after approx. 10 d, 0 to 100 scale, 0 no effect, 100 complete control, read-out: Plant response rating, Foxtail, Giant): 0%
plant injury at 125 g/ha (corn (Zea mays); 125 g ai/ha, postemergence, visual injury on 0 to 100 scale (0 no effect, 100 complete control), approx. 10 d, read-out: Corn plant response rating): 0%
Corn plant response rating (crop injury, 0 = no effect, 100 = complete kill) at 31 g/ha (corn (Zea mays); Postemergence, 31 g ai/ha, visual injury after approx. 10 d, 0 to 100 scale, 0 no effect, 100 complete control): 0%
pest or weed control at 125 g/ha ([12]; 125 g ai/ha, postemergence, visual injury on 0 to 100 scale (0 no effect, 100 complete control), approx. 10 d, read-out: Barnyardgrass plant response rating): 0%
pest or weed control at 31 g/ha ([12]; Postemergence, 31 g ai/ha, visual injury after approx. 10 d, 0 to 100 scale, 0 no effect, 100 complete control, read-out: Plant response rating, Barnyardgrass): 0%
pest or weed control at 125 g/ha (Kochia (Kochia scoparia) [13]; 125 g ai/ha, postemergence, visual injury on 0 to 100 scale (0 no effect, 100 complete control), approx. 10 d, read-out: Kochia plant response rating): 0%
pest or weed control at 31 g/ha (Kochia (Kochia scoparia) [13]; Postemergence, 31 g ai/ha, visual injury after approx. 10 d, 0 to 100 scale, 0 no effect, 100 complete control, read-out: Plant response rating, Kochia): 0%
pest or weed control at 125 g/ha ([14]; 125 g ai/ha, postemergence, visual injury on 0 to 100 scale (0 no effect, 100 complete control), approx. 10 d, read-out: Ryegrass, Italian plant response rating): 0%
pest or weed control at 31 g/ha ([14]; Postemergence, 31 g ai/ha, visual injury after approx. 10 d, 0 to 100 scale, 0 no effect, 100 complete control, read-out: Plant response rating, Ryegrass, Italian): 0%
plant injury at 125 g/ha ([15]; 125 g ai/ha, postemergence, visual injury on 0 to 100 scale (0 no effect, 100 complete control), approx. 10 d, read-out: Wheat plant response rating): 0%
plant injury at 31 g/ha ([15]; Postemergence, 31 g ai/ha, visual injury after approx. 10 d, 0 to 100 scale, 0 no effect, 100 complete control, read-out: Plant response rating, Wheat): 0%
pest or weed control at 125 g/ha ([16]; 125 g ai/ha, postemergence, visual injury on 0 to 100 scale (0 no effect, 100 complete control), approx. 10 d, read-out: Galium plant response rating): 0%
pest or weed control at 31 g/ha ([16]; Postemergence, 31 g ai/ha, visual injury after approx. 10 d, 0 to 100 scale, 0 no effect, 100 complete control, read-out: Plant response rating, Galium): 0%
pest or weed control at 125 g/ha ([17]; 125 g ai/ha, postemergence, visual injury on 0 to 100 scale (0 no effect, 100 complete control), approx. 10 d, read-out: Ragweed plant response rating): 0%
pest or weed control at 31 g/ha ([17]; Postemergence, 31 g ai/ha, visual injury after approx. 10 d, 0 to 100 scale, 0 no effect, 100 complete control, read-out: Plant response rating, Ragweed): 0%
pest or weed control at 125 g/ha ([18]; 125 g ai/ha, postemergence, visual injury on 0 to 100 scale (0 no effect, 100 complete control), approx. 10 d, read-out: Pigweed plant response rating): 30%
pest or weed control at 31 g/ha ([18]; Postemergence, 31 g ai/ha, visual injury after approx. 10 d, 0 to 100 scale, 0 no effect, 100 complete control, read-out: Plant response rating, Pigweed): 0%
